Test results reported in patent US20040248806A1, “Compounds comprising an analgesic molecule linked to a vector that can vectorise said molecule through the hematoencephalic barrier and pharmaceutical compositions containing same” (priority 2001, published 2004).
Where two headings read alike, the source gives them in different places. Non-standard residues stand in square brackets, D forms with d. Residues, ends and D or L forms follow the SMILES beside them. *: point of attachment. X1 = CN1CC[C@]23c4c5ccc(O)c4O[C@H]2[C@@H](O[C@@H]2O[C@H](C(=O)NCCS*)[C@@H](O)[C@H](O)[C@H]2O)C=C[C@H]3[C@H]1C5; Mpa = O=C(O)CCS

Experiments:
[1] = Respiratory depression (blood O2 saturation); assay type: in vivo, rat; conditions: rats, subcutaneous; for effect on oxygen saturation (FIG. 5, B and C) / oxygen level (SO2): 5×ED50 and 10×ED50 doses; for oxygen level (SO2): between 30 and 90 min; for effect on O2 saturation (FIG. 5, A): ED50 dose
Description: The respiratory depression was calculated in rats. The product is injected into the animals subcutaneously and, after a certain amount of time, an aliquot of blood is taken from the femoral artery via a catheter implanted beforehand. During the study, the animals are placed in a calm place. After the blood sample has been taken, the oxygen saturation (SO2) and the CO2 pressure (PCO2) are measured. The SO2 values are measured in % O2.

[2] = Tail flick test; assay type: in vivo, mouse; conditions: mice; for ED50: dose giving analgesic effect in 50% of the mice
Description: II.2. Assay Used: Tail Flick Test
a) Experimental Conditions
The mouse tail is placed in front of an infrared source. The light is focused on the ventral surface of the tail so as to produce a surface temperature of 55° C. As soon as the mouse moves the tail, the reaction time is then measured. The compounds studied are administered subcutaneously.
Three measurements are taken before administration of the product so as to have a baseline time. The percentage of mice in which analgesia has occurred is then represented by the number of mice having a reaction time which is at least double the baseline time divided by the total number of mice. The ED50 dose represents the concentration which gives 50% of mice in which analgesia has occurred.
[…]. We determined the ED50, which represents the dose which gives an analgesic effect in 50% of the mice in the “tail flick” model, for each product. […].

[3] = target: μ1 receptor; test: Receptor affinity, [3H]DADLE binding in calf thalamus homogenate; conditions: [3H]DADLE 0.7 nM with 10 nM DPDPE
Description: (§1) Tissue homogenates are prepared from calf brains (thalamus for μ1 and μ2 and frontal cortex for delta). [^3H][D-Ala^2,D-Leu^5]enkephalin (DADLE) (0.7 nM) is incubated with 3 ml of tissue homogenate (15 mg of tissue per ml) in the presence of 10 nM of [D-Pen^2,D-Pen^5]enkephalin (DPDPE) and of increasing concentrations of free or vectorized M6G. Under these conditions, specific binding to μ1 binding sites is observed. For the μ2 receptor, [D-Ala^2, MePhe^4,Gly(ol)^5]enkephalin (DAMGO) (1 nM) is incubated with 3 ml of tissue homogenate in the presence of 5 nM [D-Ser2,Leu^5]enkephalin-Thr^6 (DSLET) and of increasing concentrations of free or vectorized M6G. For the delta receptor, the tissue is incubated with [^3H] [D-Pen^2,D-Pen^5]enkephalin in the presence of free or vectorized M6G. The nonspecific binding is determined by adding to the labeled ligands 1 μM of levallorphan.

[4] = target: T1, delta receptor (Bos taurus, UniProt F1N083); test: Receptor affinity, [3H]DPDPE binding in calf frontal cortex homogenate
T1 construct: Tissue homogenates are prepared from calf brains; from tissue; host or cells: calf brain frontal cortex homogenate
T1 sequence (F1N083 1-372): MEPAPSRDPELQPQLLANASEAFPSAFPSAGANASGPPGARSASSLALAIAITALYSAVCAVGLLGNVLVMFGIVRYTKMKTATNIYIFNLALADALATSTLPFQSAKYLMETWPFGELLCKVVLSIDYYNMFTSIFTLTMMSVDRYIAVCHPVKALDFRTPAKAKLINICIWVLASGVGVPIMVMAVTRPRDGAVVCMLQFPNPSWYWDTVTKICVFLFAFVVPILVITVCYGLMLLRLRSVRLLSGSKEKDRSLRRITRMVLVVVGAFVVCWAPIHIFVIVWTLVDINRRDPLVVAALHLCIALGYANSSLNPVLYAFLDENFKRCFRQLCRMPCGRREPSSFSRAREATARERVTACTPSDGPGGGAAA
Description: as §1

[5] = systemic injection; cited from earlier work
[6] = target: T2, μ2 receptor (Bos taurus, UniProt P79350); test: Receptor affinity, DAMGO binding in calf thalamus homogenate; conditions: DAMGO 1 nM with 5 nM DSLET
T2 construct: Tissue homogenates are prepared from calf brains; from tissue; host or cells: calf brain thalamus homogenate
T2 sequence (P79350 whole entry): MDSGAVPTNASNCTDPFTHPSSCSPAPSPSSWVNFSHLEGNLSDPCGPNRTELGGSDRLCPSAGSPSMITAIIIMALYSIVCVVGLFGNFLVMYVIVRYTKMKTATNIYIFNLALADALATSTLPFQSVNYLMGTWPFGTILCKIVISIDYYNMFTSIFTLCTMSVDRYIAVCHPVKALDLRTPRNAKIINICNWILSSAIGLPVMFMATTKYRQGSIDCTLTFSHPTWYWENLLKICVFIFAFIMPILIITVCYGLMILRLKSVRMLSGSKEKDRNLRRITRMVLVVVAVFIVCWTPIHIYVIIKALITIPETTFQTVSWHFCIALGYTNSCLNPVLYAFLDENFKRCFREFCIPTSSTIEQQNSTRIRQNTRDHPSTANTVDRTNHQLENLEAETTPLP
Description: as §1

[7] = In situ brain perfusion (penetration through the BBB); assay type: in vivo; conditions: mouse, perfusion of 60 seconds in buffer
From the text: a) Experimental Conditions: In Situ Brain Perfusion
Mice (20-25 g, Iffa-Credo; l'Arbresle, France) are anesthetized. After exposure of the common carotid, the right external carotid artery is ligated at the level of the bifurcation with the internal carotid, and the common carotid is ligated between the heart and the site of the implantation of the catheter (polyethylene catheter, ID: 0.76). Said catheter, pre-filled with a heparin solution (100 units/ml) is inserted into the common carotid. The mice are perfused with a perfusion buffer (128 mM NaCl, 24 mM NaHCO3, 4.2 mM KCl, 2.4 mM NaH2PO4, 1.5 mM CaCl2, 0.9 mM MgSO4 and 9 mM D-glucose). This buffer is filtered and then a mixture containing 95% O2/5% CO2 is bubbled through in order to maintain the pH in the region of 7.4 and to supply the brain with oxygen during the perfusion.
The mice are perfused with the buffer containing the free M6G (compound 1: specific activity 84 mCi/mg) or the vectorized M6G (compound 2; specific activity 14.3 mCi/mg). Just before the start of the perfusion, the heart is stopped by sectioning the ventricles, in order to avoid reflux of the perfusate during the perfusion. The right hemisphere is then perfused at a rate of 10 ml/min for 60 seconds, after which time the mouse is decapitated. The amount of radioactivity in the right hemisphere is then measured and the brain penetration index (Kin) is calculated. […]

In the case of `CN1CC[C@]23c4c5ccc(O)c4O[C@H]2[C@@H](O)C=C[C@H]3[C@H]1C5` [Compound 3, Morphine], the “effect on oxygen saturation (FIG. 5, B and C)” value (shortened to “effect on oxygen saturation”) [1] is reported as “very significant decrease in the oxygen saturation”, the “oxygen level (SO2)” value [1] is reported as about 50% and the “effect on O2 saturation (FIG. 5, A)” value [1] is reported as “small decrease in O2 saturation”. The ED50 ([2]; Mus musculus, sc, subcutaneous, read-out: ED50) was 11.6 µmol/kg, the ED50 ([2]; Mus musculus, intravenous, read-out: ED50) was 15.4 µmol/kg and the “Duration of the effect” value ([2]; intravenous) was 60 min. The “Duration of the effect” value ([2]; subcutaneous) was 90 min.

With `CN1CC[C@]23c4c5ccc(O)c4O[C@H]2[C@@H](O[C@@H]2O[C@H](C(=O)O)[C@@H](O)[C@H](O)[C@H]2O)C=C[C@H]3[C@H]1C5` [Compound 1, morphine-6-glucuronide] the “effect on oxygen saturation” value [1] was “very significant decrease in the oxygen saturation”, the “oxygen level (SO2)” value [1] was about 50% and the “mortality (FIG. 5, C)” value ([1]; 10×ED50 dose, 60 min time point) was “caused the death of some animals”. The “effect on O2 saturation (FIG. 5, A)” value [1] was “no effect”, the Ki [3] was 2.67 nM and the Ki [4] was 23 nM. For the same molecule, the “analgesic activity compared with morphine” value [5] was “roughly the same analgesic activity”, the Ki [6] was 5.82 nM and the “Duration of the effect” value ([2]; intravenous) was 90 min. The ED50 ([2]; intravenous) was over 5.7 µmol/kg, the “Duration of the effect” value ([2]; subcutaneous) was 150 min and the ED50 ([2]; subcutaneous) was 6.6 µmol/kg.

For `CC(C)C[C@H](NC(=O)[C@H](CCCNC(=N)N)NC(=O)[C@H](CCCNC(=N)N)NC(=O)CCSSCCNC(=O)[C@H]1O[C@@H](O[C@H]2C=C[C@H]3[C@H]4Cc5ccc(O)c6c5[C@@]3(CCN4C)[C@H]2O6)[C@H](O)[C@@H](O)[C@@H]1O)C(=O)N[C@@H](CO)C(=O)N[C@@H](Cc1ccc(O)cc1)C(=O)N[C@@H](CO)C(=O)N[C@@H](CCCNC(=N)N)C(=O)N[C@@H](CCCNC(=N)N)C(=O)N[C@@H](CCCNC(=N)N)C(=O)N[C@@H](Cc1ccccc1)C(=O)O` [Compound 2] ([Mpa](X1)RRLSYSRRRF-OH; C-terminus assumed), the “effect on oxygen saturation” value [1] was “no notable decrease”, the “effect on O2 saturation (FIG. 5, A)” value [1] was “no effect” and the “increase in passage into the brain (Kin) versus free M6G (FIG. 4)” value [7] was “approximately 100 fold”. For the same molecule, the Ki [4] was 19 nM and the Ki [6] was 0.6 nM.
